System: MYC expression in HEK293T cells
Test: MYC expression by qPCR after RNAiMax transfection
Type: cell-based, human
Details: 100 nM, 24 hours
Procedure: HEK293T cells were seeded at 30 k cells/well in a 96 well tissue culture vessel day before transfection. The next day cells were transfected with 400, 200, 100, 50 nM of PVT1 ASO1-JQ1 with Lipofectamine RNAiMax (ThermoFisher Cat #13778150). […] Transfected cells were allowed to recover and were harvested after 24 hours. MYC expression was measured by RNA level using qPCR analysis after transfection with each of the bi-functional molecule or control molecules. Cell samples for qPCR analysis were prepared by Cells to Ct 1 Step TaqMan Kit (ThermoFisher A25602) following manufacturer's recommendations. qPCR assays were performed using Cells to Ct qPCR master mix, gene specific TaqMan probe (ThermoFisher), and Cells to Ct cell lysate. Relative levels of MYC were normalized to β-actin as a stably expressed control. MYC TaqMan probe: […] ACTB TaqMan probe: […] During qPCR amplification, FAM fluorescence intensity for each target gene was recorded by QuantStudio7 qPCR instrument (ThermoFisher Scientific) as a measurement of the amount of double-stranded DNA produced during each PCR cycle. Ct values for each gene in each sample were computed by the instrument software based on the amplification curves, and used to determine relative expression values for target and β-actin in each sample.

Substance	MYC expression change (in words)
PVT1-Scr1: partially scrambled PVT1 ASO1 (SEQ ID NO: 63) conjugated to JQ1 (antisense TGAAGTGGAATTCCAGTTG; listed as DNA, chemistry not fully specified)	less impact
PVT1-Scr4: partially scrambled PVT1 ASO1 (SEQ ID NO: 66) conjugated to JQ1 (antisense GTAAGTGGAATTCCATTGG; listed as DNA, chemistry not fully specified)	less impact

Source: patent US20250122502A1, “Bifunctional Molecules and Methods of Using Thereof” (FLAGSHIP PIONEERING, INC., priority 2021, published 2025)
